Literature values in patent US7033983B2, “Detergent compositions” (Unilever Home and Personal Care USA a division of Conopco, …, priority 2002, dated 2006).

Details: highly water-soluble materials; saturated solution in 100 g deionised water at 20° C.

NC(N)=O [Urea]
Water Solubility: >100 g/100 g
